Reference: publication PMC6572338 (2019)

Experiments:
[1] = test system: C-mycG4 (Pu-27); C-myc G4 (DNA, G4) TGGGGAGGGTGGGGAGGGTGGGGAAGG; assay: PCR-stop assay; details: 50 mM KCl; Platinum Supermix, 0.5 uM each oligonucleotide, Pu27rev primer; dose-dependent reduction of product
[2] = test system: C-mycG4 (Pu-27); C-myc G4 (DNA, G4) TGGGGAGGGTGGGGAGGGTGGGGAAGG; assay: SPR (Biacore 3000), 1:1 Langmuir kinetics; details: 200 mM KCl, 5 mM MgCl2, 20 mM HEPES pH 7.5, 1% DMSO, 0.005% P-20, immobilised compound
[3] = test system: Pu27rev (DNA, single strand) ATCGATCGCTTCTTCGTCCTTCCCCA; assay: SPR (Biacore 3000); details: 200 mM KCl, 5 mM MgCl2; 20 mM HEPES pH 7.5, 1% DMSO, 0.005% P-20; immobilised compound; NB, oligonucleotide up to 10 uM
[4] = test system: c-myc_G4_2345; Pu21_2345 (DNA, G4) GAGGGTGGGGAGGGTGGGGAA; assay: SPR (Biacore 3000), 1:1 Langmuir kinetics; details: 200 mM KCl, 5 mM MgCl2, 20 mM HEPES pH 7.5, 1% DMSO, 0.005% P-20, immobilised compound
[5] = test system: C-kit2; C-kit2 G4 (DNA, G4) GGGCGGGCGCGAGGGAGGGG; assay: SPR (Biacore 3000), 1:1 Langmuir kinetics; details: 200 mM KCl, 5 mM MgCl2; 20 mM HEPES pH 7.5, 1% DMSO, 0.005% P-20; immobilised compound
[6] = test system: c-myc_G4_1234; Pu21_1234 (DNA, G4) TGGGGAGGGTGGGGAGGGTGG; assay: SPR (Biacore 3000), 1:1 Langmuir kinetics; details: 200 mM KCl, 5 mM MgCl2, 20 mM HEPES pH 7.5, 1% DMSO, 0.005% P-20, immobilised compound
[7] = test system: C-kit1; C-kit1 G4 (DNA, G4) AGGGAGGGCGCTGGGAGGAGGG; assay: SPR (Biacore 3000), 1:1 Langmuir kinetics; details: 200 mM KCl, 5 mM MgCl2; 20 mM HEPES pH 7.5, 1% DMSO, 0.005% P-20; immobilised compound

Row | binding [1] | KD [2] [nM] | binding [3] | KD ([4]; text prints 190 nM) [nM] | KD [5] [µM] | KD [6] [nM] | KD [7] [nM] | KD ([2]; text prints 1.06 µM) [nM] | KD [4] [nM] | KD ([6]; text prints 328 nM) [nM] | Compound
1 | yes | – | – | – | – | – | – | – | – | – | Cc1cnccc1N1CCN(c2nccc3c2nc(-c2c[nH]c4ccncc24)n3CCOCCOCCN)CC1
2 | – | 328 | no | 197 | 1.4 | 59 | 807 | – | – | – | Cc1cnccc1N1CCN(c2nccc3c2nc(-c2c[nH]c4ccncc24)n3CCOCCOCCNC(=O)CCCC[C@@H]2SC[C@@H]3NC(=O)N[C@@H]32)CC1
3 | yes | – | – | – | – | – | – | – | – | – | Cn1cccc1CN(CC(=O)NCCOCCOCCN)Cc1ccc(OCC(=O)NCc2nc3ccccc3c(=O)[nH]2)c(Cl)c1
4 | – | – | no | – | 1.7 | – | 1100 | 1050 | 308 | 338 | Cn1cccc1CN(CC(=O)NCCOCCOCCNC(=O)CCCC[C@@H]1SC[C@@H]2NC(=O)N[C@@H]21)Cc1ccc(OCC(=O)NCc2nc3ccccc3c(=O)[nH]2)c(Cl)c1
